Test results as given in PubChem BioAssay AID1117361 (Southern Research Institute, 2015).

Target: Protein Tat (Human immunodeficiency virus type 1 group M subtype B (isolate HXB2)) (UniProt P04608)
Experiment: HIV-1 Tat–TAR interaction blockers – biochemical, fluorescence polarization, FAM-labeled TAR RNA, counter-screen for Vif-APOBEC3G degradation inhibitor project, dose response (AID 1117361)
Settings: Tat-TAR RNA binding

Chain of Protein Tat (Human immunodeficiency virus type 1 group M subtype B (isolate HXB2)) (P04608 whole entry, looked up): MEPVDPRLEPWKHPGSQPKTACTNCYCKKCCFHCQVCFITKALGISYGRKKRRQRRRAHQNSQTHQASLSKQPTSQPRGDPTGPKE

## CCOc1cccc(=O)c2c(C)n(C)c(C)c12
  IC50: 55.2 µM
